Test results reported in article PMC5342726, “Identification of small molecule inhibitors of ERCC1-XPF that inhibit DNA repair and potentiate cisplatin efficacy in cancer cells” (Oncotarget, 2016).

Target: T1, ERCC1-XPF (Homo sapiens, UniProt P07992+Q92889)
T1 construct: made in house; host or cells: Sf9 insect cells, baculovirus (obtained from Aziz Sancar)
T1 sequence (Q92889 1-916): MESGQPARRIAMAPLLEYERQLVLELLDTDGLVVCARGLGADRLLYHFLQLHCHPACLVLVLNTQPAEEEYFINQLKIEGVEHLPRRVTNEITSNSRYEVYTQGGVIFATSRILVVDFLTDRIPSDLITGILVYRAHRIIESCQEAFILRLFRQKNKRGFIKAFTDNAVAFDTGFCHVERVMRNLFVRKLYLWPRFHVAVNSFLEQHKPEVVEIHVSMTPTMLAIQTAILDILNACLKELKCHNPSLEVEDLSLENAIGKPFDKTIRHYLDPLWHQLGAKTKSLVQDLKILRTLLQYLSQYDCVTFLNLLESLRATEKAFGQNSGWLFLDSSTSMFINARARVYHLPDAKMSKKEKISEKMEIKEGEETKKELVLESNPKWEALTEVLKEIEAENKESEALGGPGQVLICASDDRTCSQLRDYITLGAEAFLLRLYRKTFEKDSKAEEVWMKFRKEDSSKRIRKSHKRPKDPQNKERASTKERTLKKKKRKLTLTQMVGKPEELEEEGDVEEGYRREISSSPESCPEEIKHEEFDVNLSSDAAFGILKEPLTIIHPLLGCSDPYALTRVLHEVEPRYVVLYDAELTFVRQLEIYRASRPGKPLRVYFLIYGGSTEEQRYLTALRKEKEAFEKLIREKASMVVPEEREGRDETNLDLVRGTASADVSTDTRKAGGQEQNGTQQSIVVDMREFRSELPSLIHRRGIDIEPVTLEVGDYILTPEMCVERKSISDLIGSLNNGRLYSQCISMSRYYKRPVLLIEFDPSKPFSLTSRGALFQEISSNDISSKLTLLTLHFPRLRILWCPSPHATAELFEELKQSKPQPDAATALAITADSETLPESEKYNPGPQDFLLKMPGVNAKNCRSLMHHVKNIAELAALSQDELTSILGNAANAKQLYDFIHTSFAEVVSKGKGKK
T1 sequence (P07992 1-297): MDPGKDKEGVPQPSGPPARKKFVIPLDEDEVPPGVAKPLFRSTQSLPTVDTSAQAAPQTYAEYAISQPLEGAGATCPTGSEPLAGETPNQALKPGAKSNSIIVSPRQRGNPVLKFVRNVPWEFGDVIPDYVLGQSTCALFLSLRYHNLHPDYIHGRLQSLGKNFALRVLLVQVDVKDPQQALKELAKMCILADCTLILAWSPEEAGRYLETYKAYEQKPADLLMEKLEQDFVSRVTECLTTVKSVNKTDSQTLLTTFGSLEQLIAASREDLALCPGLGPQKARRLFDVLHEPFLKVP
Assay: Rapid dilution experiment for reversible or irreversible binding
Type: biochemical
Conditions: for recovery of enzymatic activity after rapid dilution: 100-fold enzyme preincubated 30 min with 10 times IC90, diluted 100-fold; for reversibility of binding to ERCC1-XPF: rapid dilution method
Description: Next, to determine reversible or irreversible binding, we used a rapid dilution method. Here, the amount of enzyme (ERCC1-XPF) is increased 100-fold above what is normally used in a reaction and is pre-incubated for 30 minutes with a concentration of the SMI 10-times greater than the IC90 concentration or with vehicle control. After incubation, the enzyme/inhibitor mixture is diluted 100-fold (i.e., to normal reaction conditions) in the reaction buffer with the DNA substrate at normal reaction conditions. A reversible inhibitor dissociates quickly, allowing immediate recovery of enzymatic activity, whereas a slowly reversible inhibitor allows a gradual increase in activity. In contrast, an irreversible inhibitor prevents recovery of any enzymatic activity. […]
Analysis of DNA binding treatment) was used as 100% intrastrand adducts in each […]
Rapid dilution experiments as described previously […]
of the identified compounds – Hit 1 (NSC143099) and Hit comet assay
2 (NSC16168) to ERCC1-XPF. Briefly, in a 10 μl reaction, ERCC1-XPF concentration was increased 100-fold from Repair of interstrand crosslinks (ICLs) normal reaction conditions of 7.5 nM and mixed with 10 was assessed by alkaline comet assay with some times the IC90 concentration of the compound or vehicle modifications. Cells were treated with compound (Hit control (9:1 DMSO-glycerol). After incubation at 37°C 1 or Hit 2) and cisplatin or just cisplatin alone in serum for 30 minutes, 2 μL of the pre-incubate was diluted into a free media. For treatment with compound and cisplatin, 198 μL solution containing the DNA substrate and reaction cells were treated with compound at 15 µM for 2 hours buffer described in the methods section for HTS assay in a 96 and then cisplatin was added (at IC90 concentration for well plate. The 96-well plate was read in a Spectramax M5 the cell line used) to the media and these were incubated repeatedly for 60 minutes. The data was plotted as increase for another 2 hours. […]
Cisplatin intrastrand adduct measurement by of hydrogen peroxide for 15 minutes to induce random ELISA DNA strand breaks. Cells were then trypsinized, pelleted and resuspended in 1% low melting point agarose. Cell […]
ELISA as described with some modifications. […] Equal amounts of DNA were coated on 96 kept in neutralizing solution (0.4 M Tris–HCl, pH 7.5) well DNA binding ELISA plates in binding buffer (1M for 10 minutes. Slides were then stained with SYBR sodium chloride, 50 mM sodium phosphate buffer, pH green (Trevigen) and comets were analyzed using a 7.4, 0.02% sodium azide) and incubated at 4°C overnight. […]
The wells were blocked with 1% BSA in PBS for 1 hour Fifty cells were analyzed per slide using Komet Assay at room temperature. […]

SMILES	recovery of enzymatic activity after rapid dilution	reversibility of binding to ERCC1-XPF
Cc1ccc(S(=O)(=O)Oc2cc(S(=O)(=O)O)cc3cc(S(=O)(=O)O)cc(N)c23)cc1 [NSC16168]	recovers slowly	moderately reversible inhibitor
Oc1cc(O)c2c(c1)OC(c1ccc(O)c(O)c1)C(O)C2c1c(O)cc(O)c2c1OC(c1ccc(O)c(O)c1)C(O)C2 (stereo not shown) [NSC143099]	virtually no recovery of the enzymatic activity	binds irreversibly
